# Measured values taken from ChEMBL document CHEMBL6177936, “Stachydrine, a pyrrole alkaloid with promising therapeutic potential against metabolic syndrome and associated organ dysfunction” (RSC Med Chem, 2024).
# Legend:
# [1] = AUC(0 to infinity) in KYDS rat at 1 g/Kg, IG by LC-MS/MS analysis; type: ADME; settings: in vivo, po, 1000 mg/kg
# [2] = MRT (0 to infinity) in Sprague-Dawley rat at 9.86 mg/kg, po by UPLC-MS/MS analysis; type: ADME, organism-based; settings: in vivo
# [3] = AUC (0 to infinity) in Wistar rat at 10 mg/kg, iv measured for 24 hrs by LC-MS/MS analysis; type: ADME, organism-based; settings: in vivo
# [4] = AUC (0 to infinity) in Sprague-Dawley rat at 9.86 mg/kg, po by UPLC-MS/MS analysis; type: ADME, organism-based; settings: in vivo
# [5] = Cmax in Wistar rat at 166.3 mg/kg, po; type: ADME, organism-based; settings: in vivo
# [6] = Cmax in Sprague-Dawley rat at 9.86 mg/kg, po by UPLC-MS/MS analysis; type: ADME, organism-based; settings: in vivo
# [7] = Clearance in Wistar rat at 10 mg/kg, iv measured for 24 hrs by LC-MS/MS analysis; type: ADME, organism-based; settings: in vivo
# [8] = MRT (0 to infinity) in Wistar rat at 166.3 mg/kg, po; type: ADME, organism-based; settings: in vivo
# [9] = Tmax in Sprague-Dawley rat at 9.86 mg/kg, po by UPLC-MS/MS analysis; type: ADME, organism-based; settings: in vivo
# [10] = Half life in Sprague-Dawley rat at 9.86 mg/kg, po by UPLC-MS/MS analysis; type: ADME, organism-based; settings: in vivo
# [11] = MRT(infinity) in CSBS-PD induced Sprague-Dawley rat at 15.28 mg/kg, po incubated for 24 hrs by LC-MS/MS analysis; type: ADME, organism-based; settings: in vivo
# [12] = Tmax in KYDS rat at 1 g/Kg, IG by LC-MS/MS analysis; type: ADME; settings: in vivo, po, 1000 mg/kg
# [13] = MRT (0 to infinity) in KYDS rat at 1 g/Kg, IG by LC-MS/MS analysis; type: ADME; settings: in vivo, po, 1000 mg/kg
# [14] = Apparent oral clearance in KYDS rat at 1 g/Kg, IG by LC-MS/MS analysis; type: ADME; settings: in vivo, 1000 mg/kg
# [15] = Tmax in Wistar rat at 166.3 mg/kg, po; type: ADME, organism-based; settings: in vivo
# [16] = Half life in CSBS-PD induced Sprague-Dawley rat at 15.28 mg/kg, po incubated for 24 hrs by LC-MS/MS analysis; type: ADME, organism-based; settings: in vivo
# [17] = Half life in Wistar rat at 166.3 mg/kg, po; type: ADME, organism-based; settings: in vivo
# [18] = Half life in Sprague-Dawley rat at 15.28 mg/kg, po incubated for 24 hrs by LC-MS/MS analysis; type: ADME, organism-based; settings: in vivo
# [19] = AUC (0 to infinity) in Wistar rat at 166.3 mg/kg, po; type: ADME, organism-based; settings: in vivo
# [20] = Cmax in KYDS rat at 1 g/Kg, IG by LC-MS/MS analysis; type: ADME; settings: in vivo, po, 1000 mg/kg
# [21] = Cmax in CSBS-PD induced Sprague-Dawley rat at 15.28 mg/kg, po incubated for 24 hrs by LC-MS/MS analysis; type: ADME, organism-based; settings: in vivo
# [22] = Half life in KYDS rat at 1 g/Kg, IG by LC-MS/MS analysis; type: ADME; settings: in vivo, po, 1000 mg/kg
# [23] = Tmax in CSBS-PD induced Sprague-Dawley rat at 15.28 mg/kg, po incubated for 24 hrs by LC-MS/MS analysis; type: ADME, organism-based; settings: in vivo
# [24] = Cmax in Wistar rat at 10 mg/kg, iv measured for 24 hrs by LC-MS/MS analysis; type: ADME, organism-based; settings: in vivo
# [25] = AUC(infinity) in CSBS-PD induced Sprague-Dawley rat at 15.28 mg/kg, po incubated for 24 hrs by LC-MS/MS analysis; type: ADME, organism-based; settings: in vivo
compound,measurement,setting,value
C[N+]1(C)CCC[C@H]1C(=O)[O-],AUC,[1],1279.31 µg/L/h
same,MRT inf,[2],4.44 h
same,AUC,[3],12026.7 h/ng/mL
same,AUC(0-inf),[4],2800 ng·h/mL
same,Cmax,[5],1610 ng/mL
same,Cmax,[6],673 ng/mL
same,clearance,[7],15.5 mL/min/kg
same,MRT inf,[8],1.67 h
same,Tmax,[9],1.5 h
same,half-life,[10],3.79 h
same,MRT inf,[11],9.97 h
same,Tmax,[12],1.08 h
same,MRT inf,[13],9.21 h
same,CL/F,[14],1 mL/min/kg
same,Tmax,[15],0.75 h
same,half-life,[16],5.51 h
same,half-life,[17],1.64 h
same,half-life,[18],3.89 h
same,AUC(0-inf),[19],2900 ng·h/mL
same,Cmax,[20],135 ng/mL
same,Cmax,[21],14000 ng/mL
same,half-life,[22],6.59 h
same,Tmax,[23],2.83 h
same,Cmax,[24],6400 ng/mL
same,AUC,[25],99240 ng·h/mL
